# Reference: patent publication US20230287044A1, “NOVEL ANTIBACTERIAL PEPTIDE AND USE THEREOF” (priority 2020, published 2023)
# Square brackets hold non-standard residues; d marks the D form. Peptide text beside a SMILES is read from it.
# Assays:
# [1] = system: MRPA (P. aeruginosa) CCARM 2180; format: cell-based, Pseudomonas aeruginosa; conditions: CCARM 2180, 18 h
# Experimental: (§1) The minimum growth inhibitory concentrations of the antibacterial peptides of the present invention weremeasured, and the results are shown in Table 3 below.
# (§2) Specifically, the strains were grown in CAMHB until the midlog phase, and then diluted with PBS buffer to 1× 10^6 cfu/ml to prepare the bacterial solution, and the antibacterial peptide prepared in Example 1above was diluted with CAMHB to 80 µM, 40 µM, 20 µM, 10 µM, 5 µM, 2.5 µM, 1.25 µM and 0.63 µM, and then the bacterial solution was treated with the same volume.
# (§3) The results are the average value of three independent experiments.
# [2] = system: MRAB (A. baumannii) ATCC BAA 1605; format: cell-based, Acinetobacter baumannii; conditions: ATCC BAA 1605, 18 h
# Experimental: as §1, §2, §3
# [3] = system: MRSA (S. aureus) KCCM 40510; format: cell-based, Staphylococcus aureus; conditions: KCCM 40510, 18 h
# Experimental: as §1, §2, §3
# [4] = system: VRE (E. faecalis) ATCC 51575; format: cell-based, Enterococcus faecalis; conditions: ATCC 51575, 18 h
# Experimental: as §1, §2, §3
MIC MRPA (P. aeruginosa) CCARM 2180 [1] [µM],MIC MRAB (A. baumannii) ATCC BAA 1605 [2],MIC MRSA (S. aureus) KCCM 40510 [3] [µM],MIC VRE (E. faecalis) ATCC 51575 [4] [µM],SMILES
>10,2.5 µM,>10,>10,"CC[C@@H](C)[C@@H](NC(=O)[C@@H](Cc1c[nH]c2ccccc12)NC(=O)[C@@H](C)NC(=O)[C@@H](C)NC(=O)[C@H](N)Cc1c[nH]c2ccccc12)C(=O)NCC(=O)N[C@H](CC(C)C)C(=O)N[C@H](CCCNC(=N)N)C(=O)N[C@H](CCCCN)C(=O)N[C@H](CCCNC(=N)N)C(=O)N[C@H](CCCCN)C(N)=O [KSH77, waawiglrkrk] (H-[dW][dA][dA][dW][dI]G[dL][dR][dK][dR][dK]-NH2; N-terminus assumed)"
>10,5 µM,>10,>10,"CC[C@@H](C)[C@@H](NC(=O)[C@@H](Cc1c[nH]c2ccccc12)NC(=O)[C@@H](C)NC(=O)[C@@H](C)NC(=O)[C@H](N)Cc1c[nH]c2ccccc12)C(=O)NCC(=O)N[C@H](CC(C)C)C(=O)N[C@H](CCCNC(=N)N)C(=O)N[C@H](CCCNC(=N)N)C(N)=O [KSH78, waawiglrr] (H-[dW][dA][dA][dW][dI]G[dL][dR][dR]-NH2; N-terminus assumed)"
2.5,10 µM,1.25,1.25,"CC(C)[C@@H](NC(=O)[C@@H](Cc1c[nH]c2ccccc12)NC(=O)[C@@H](Cc1c[nH]c2ccccc12)NC(=O)[C@H](NC(=O)[C@@H](Cc1c[nH]c2ccccc12)NC(=O)[C@@H](CCCNC(=N)N)NC(=O)[C@@H](CCCNC(=N)N)NC(=O)[C@H](N)CCCNC(=N)N)C(C)C)C(=O)N[C@H](Cc1c[nH]c2ccccc12)C(=O)N[C@H](Cc1c[nH]c2ccccc12)C(N)=O [KSH79, rrrwvwwvww] (H-[dR][dR][dR][dW][dV][dW][dW][dV][dW][dW]-NH2; N-terminus assumed)"
2.5,10 µM,1.25,1.25,"CC(C)[C@@H](NC(=O)[C@@H](Cc1c[nH]c2ccccc12)NC(=O)[C@@H](CCCNC(=N)N)NC(=O)[C@@H](CCCNC(=N)N)NC(=O)[C@H](N)CCCNC(=N)N)C(=O)N[C@H](Cc1c[nH]c2ccccc12)C(=O)N[C@H](Cc1c[nH]c2ccccc12)C(=O)N[C@@H](C(=O)N[C@@H](C(=O)N[C@H](Cc1c[nH]c2ccccc12)C(N)=O)C(C)C)C(C)C [KSH80, rrrwvwwvvw] (H-[dR][dR][dR][dW][dV][dW][dW][dV][dV][dW]-NH2; N-terminus assumed)"
5,10 µM,1.25,1.25,"CC(C)[C@@H](NC(=O)[C@@H](Cc1c[nH]c2ccccc12)NC(=O)[C@@H](CCCNC(=N)N)NC(=O)[C@@H](CCCNC(=N)N)NC(=O)[C@H](N)CCCNC(=N)N)C(=O)N[C@H](Cc1c[nH]c2ccccc12)C(=O)N[C@@H](C(=O)N[C@@H](C(=O)N[C@H](Cc1c[nH]c2ccccc12)C(=O)N[C@H](Cc1c[nH]c2ccccc12)C(N)=O)C(C)C)C(C)C [KSH81, rrrwvwvvww] (H-[dR][dR][dR][dW][dV][dW][dV][dV][dW][dW]-NH2; N-terminus assumed)"

# The remaining lines, values behind:
SMILES,MIC MRPA (P. aeruginosa) CCARM 2180 [1] [µM],MIC MRAB (A. baumannii) ATCC BAA 1605 [2],MIC MRSA (S. aureus) KCCM 40510 [3] [µM],MIC VRE (E. faecalis) ATCC 51575 [4] [µM]
"CC(C)[C@@H](NC(=O)[C@H](N)Cc1c[nH]c2ccccc12)C(=O)N[C@@H](C(=O)N[C@H](Cc1c[nH]c2ccccc12)C(=O)N[C@@H](C(=O)N[C@@H](C(=O)N[C@H](Cc1c[nH]c2ccccc12)C(=O)N[C@H](CCCCN)C(=O)N[C@H](CCCCN)C(=O)N[C@H](CCCCN)C(N)=O)C(C)C)C(C)C)C(C)C [KSH67, wvvwvvwkkk] (H-[dW][dV][dV][dW][dV][dV][dW][dK][dK][dK]-NH2; N-terminus assumed)",5,1.25 µM,0.63,0.63
"CC[C@@H](C)[C@@H](NC(=O)[C@@H](Cc1c[nH]c2ccccc12)NC(=O)[C@@H](CCCNC(=N)N)NC(=O)[C@@H](CCCNC(=N)N)NC(=O)[C@H](N)CCCNC(=N)N)C(=O)N[C@H](Cc1c[nH]c2ccccc12)C(=O)N[C@@H](C(=O)N[C@H](CC(C)C)C(=O)N[C@H](Cc1c[nH]c2ccccc12)C(=O)N[C@H](CCCCN)C(=O)N[C@H](CC(N)=O)C(N)=O)C(C)C [KSH68, rrrwiwvlwkn] (H-[dR][dR][dR][dW][dI][dW][dV][dL][dW][dK][dN]-NH2; N-terminus assumed)",2.5,0.63 µM,1.25,1.25
"CC[C@@H](C)[C@@H](NC(=O)[C@@H](Cc1c[nH]c2ccccc12)NC(=O)[C@@H](C)NC(=O)[C@@H](C)NC(=O)[C@H](N)Cc1c[nH]c2ccccc12)C(=O)NCC(=O)N[C@H](CC(C)C)C(=O)N[C@H](CCCNC(=N)N)C(=O)N[C@H](CCCNC(=N)N)C(=O)N[C@H](CCCNC(=N)N)C(N)=O [KSH69, waawiglrrr] (H-[dW][dA][dA][dW][dI]G[dL][dR][dR][dR]-NH2; N-terminus assumed)",>10,2.5 µM,>10,>10
"CC(C)[C@@H](NC(=O)[C@H](N)Cc1c[nH]c2ccccc12)C(=O)N[C@H](C)C(=O)N[C@H](Cc1c[nH]c2ccccc12)C(=O)N[C@H](C)C(=O)N[C@@H](C(=O)N[C@H](Cc1c[nH]c2ccccc12)C(=O)N[C@H](CCCNC(=N)N)C(=O)N[C@H](CCCNC(=N)N)C(=O)N[C@H](CCCNC(=N)N)C(N)=O)C(C)C [KSH71, wvawavwrrr] (H-[dW][dV][dA][dW][dA][dV][dW][dR][dR][dR]-NH2; N-terminus assumed)",>10,1.25 µM,5,2.5
"CC(C)[C@@H](NC(=O)[C@H](N)Cc1c[nH]c2ccccc12)C(=O)N[C@@H](C(=O)N[C@H](Cc1c[nH]c2ccccc12)C(=O)N[C@H](C)C(=O)N[C@H](C)C(=O)N[C@H](Cc1c[nH]c2ccccc12)C(=O)N[C@H](CCCNC(=N)N)C(=O)N[C@H](CCCNC(=N)N)C(=O)N[C@H](CCCNC(=N)N)C(N)=O)C(C)C [KSH72, wvvwaawrrr] (H-[dW][dV][dV][dW][dA][dA][dW][dR][dR][dR]-NH2; N-terminus assumed)",10,2.5 µM,2.5,5
"CC[C@@H](C)[C@@H](NC(=O)[C@@H](Cc1c[nH]c2ccccc12)NC(=O)[C@@H](CCCNC(=N)N)NC(=O)[C@@H](CCCNC(=N)N)NC(=O)[C@H](N)CCCNC(=N)N)C(=O)N[C@H](Cc1c[nH]c2ccccc12)C(=O)N[C@@H](C(=O)N[C@H](CC(C)C)C(=O)N[C@H](Cc1c[nH]c2ccccc12)C(N)=O)C(C)C [KSH73, rrrwiwvlw] (H-[dR][dR][dR][dW][dI][dW][dV][dL][dW]-NH2; N-terminus assumed)",2.5,2.5 µM,1.25,1.25
"CC[C@@H](C)[C@@H](NC(=O)[C@@H](Cc1c[nH]c2ccccc12)NC(=O)[C@@H](CCCNC(=N)N)NC(=O)[C@@H](CCCNC(=N)N)NC(=O)[C@H](N)CCCNC(=N)N)C(=O)N[C@H](Cc1c[nH]c2ccccc12)C(=O)N[C@H](C)C(=O)N[C@H](C)C(=O)N[C@H](Cc1c[nH]c2ccccc12)C(=O)N[C@H](CCCCN)C(N)=O [KSH74, rrrwiwaawk] (H-[dR][dR][dR][dW][dI][dW][dA][dA][dW][dK]-NH2; N-terminus assumed)",>10,2.5 µM,>10,>10
"CC[C@@H](C)[C@@H](NC(=O)[C@@H](Cc1c[nH]c2ccccc12)NC(=O)[C@@H](C)NC(=O)[C@@H](C)NC(=O)[C@H](N)Cc1c[nH]c2ccccc12)C(=O)NCC(=O)N[C@H](CC(C)C)C(=O)N[C@H](CCCNC(=N)N)C(=O)N[C@H](CCCCN)C(=O)N[C@H](CCCCN)C(=O)N[C@H](CCCCN)C(N)=O [KSH75, waawiglrkkk] (H-[dW][dA][dA][dW][dI]G[dL][dR][dK][dK][dK]-NH2; N-terminus assumed)",>10,2.5 µM,>10,>10
"CC[C@@H](C)[C@@H](NC(=O)[C@@H](Cc1c[nH]c2ccccc12)NC(=O)[C@@H](C)NC(=O)[C@@H](C)NC(=O)[C@H](N)Cc1c[nH]c2ccccc12)C(=O)NCC(=O)N[C@H](CC(C)C)C(=O)N[C@H](CCCNC(=N)N)C(=O)N[C@H](CCCNC(=N)N)C(=O)N[C@H](CCCCN)C(=O)N[C@H](CCCCN)C(N)=O [KSH76, waawiglrrkk] (H-[dW][dA][dA][dW][dI]G[dL][dR][dR][dK][dK]-NH2; N-terminus assumed)",>10,1.25~2.5 µM,>10,>10
